Source: the NIST ThermoML archive (doi:10.1021/acs.jced.5b00242)

Experiments:
[1] = refractive index (Na D-line) (dimensionless); xn = mol fraction of the nth substance listed; settings: 101 kPa, Liquid, Standard Abbe refractometry
[2] = xn = mol fraction of the nth substance listed; settings: 101 kPa, Liquid; for viscosity: Stabinger Viscometer; for mass density: Vibrating tube method

CC[n+]1ccn(C)c1.N[C@@H](CO)C(=O)[O-] [3-ethyl-1-methyl-1H-imidazolium L-serinate] + CCn1cc[n+](C)c1.N#C[C-](C#N)C#N
Settings | mass density, [2] [kg/m3] | refractive index, [1] | viscosity, [2] [mPa·s]
293.15 K, x2 = 0 | 1206.8 | 1.52699 | 3796.8
293.15 K, x2 = 0.2502 | 1177.2 | 1.52075 | 586.84
293.15 K, x2 = 0.5005 | 1141.8 | 1.51865 | 168.52
293.15 K, x2 = 0.7497 | 1112.9 | 1.51552 | 42.01
298.15 K, x2 = 0 | 1203.7 | 1.52565 | 2235.5
298.15 K, x2 = 0.2502 | 1173.6 | 1.51929 | 384.17
298.15 K, x2 = 0.5005 | 1138.4 | 1.51718 | 120.68
298.15 K, x2 = 0.7497 | 1109.3 | 1.5139 | 33.37
303.15 K, x2 = 0 | 1200.5 | 1.52429 | 1376.2
303.15 K, x2 = 0.2502 | 1170.1 | 1.51784 | 261.07
303.15 K, x2 = 0.5005 | 1135 | 1.51563 | 88.95
303.15 K, x2 = 0.7497 | 1105.8 | 1.51228 | 26.98
308.15 K, x2 = 0 | 1197.3 | 1.52294 | 882.82
308.15 K, x2 = 0.2502 | 1166.8 | 1.51636 | 183.69
308.15 K, x2 = 0.5005 | 1131.7 | 1.51409 | 67.28
308.15 K, x2 = 0.7497 | 1102.3 | 1.51064 | 22.2
313.15 K, x2 = 0 | 1194 | 1.52159 | 588.27
313.15 K, x2 = 0.2502 | 1163.5 | 1.51489 | 133.41
313.15 K, x2 = 0.5005 | 1128.4 | 1.51254 | 52.28
313.15 K, x2 = 0.7497 | 1098.9 | 1.50899 | 18.36
318.15 K, x2 = 0 | 1190.9 | 1.52022 | 405.12
318.15 K, x2 = 0.2502 | 1160.5 | 1.51343 | 98.94
318.15 K, x2 = 0.5005 | 1125.1 | 1.51099 | 41.25
318.15 K, x2 = 0.7497 | 1095.6 | 1.50736 | 15.72
323.15 K, x2 = 0 | 1187.8 | 1.51887 | 287.6
323.15 K, x2 = 0.2502 | 1157.3 | 1.51199 | 75.39
323.15 K, x2 = 0.5005 | 1121.8 | 1.50943 | 33.28
323.15 K, x2 = 0.7497 | 1092.2 | 1.50574 | 13.48
328.15 K, x2 = 0 | 1184.7 | 1.51755 | 209.91
328.15 K, x2 = 0.2502 | 1154 | 1.51051 | 58.75
328.15 K, x2 = 0.5005 | 1118.5 | 1.50784 | 27.29
328.15 K, x2 = 0.7497 | 1088.9 | 1.50408 | 11.68
333.15 K, x2 = 0 | 1181.7 | 1.5162 | 157.29
333.15 K, x2 = 0.2502 | 1150.8 | 1.50902 | 46.9
333.15 K, x2 = 0.5005 | 1115.1 | 1.50632 | 22.78
333.15 K, x2 = 0.7497 | 1085.6 | 1.50253 | 10.07
338.15 K, x2 = 0 | 1178.7 | 1.51486 | 119.86
338.15 K, x2 = 0.2502 | 1147.6 | 1.50755 | 37.79
338.15 K, x2 = 0.5005 | 1111.9 | 1.50475 | 19.18
338.15 K, x2 = 0.7497 | 1082.2 | 1.50093 | 9.03
343.15 K, x2 = 0 | 1175.7 | 1.51353 | 93.36
343.15 K, x2 = 0.2502 | 1144.4 | 1.50611 | 31.01
343.15 K, x2 = 0.5005 | 1108.6 | 1.50324 | 16.37
343.15 K, x2 = 0.7497 | 1078.9 | 1.49932 | 8.03
348.15 K, x2 = 0 | 1172.8 | 1.5122 | 74.03
348.15 K, x2 = 0.2502 | 1141.2 | 1.50459 | 25.75
348.15 K, x2 = 0.5005 | 1105.2 | 1.50173 | 14.12
348.15 K, x2 = 0.7497 | 1075.7 | 1.49774 | 7.19
353.15 K, x2 = 0 | 1169.7 | 1.51084 | 59.91
353.15 K, x2 = 0.2502 | 1138 | 1.50318 | 21.14
353.15 K, x2 = 0.5005 | 1101.8 | 1.50018 | 12.31
353.15 K, x2 = 0.7497 | 1072.3 | 1.49615 | 6.36
